# Several values for one entry are separate records, joined by “and”; a condition that tells them apart may be missing. Identical values can stand only once.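 Grown in 96-well plates, cells were treated for 48 hours with each compound at five concentrations. Insufficient inhibition: endpoint recorded as highest concentration tested. The concentration for 50% growth inhibition is given as GI50. TGI: concentration producing complete growth inhibition.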
# Tests used:
# Assay in all cases: growth of human tumour cells (NCI), 48 h
# ACHN renal = system: ACHN renal
# BT-549 breast = system: BT-549 breast
# CCRF-CEM leukemia = system: CCRF-CEM leukemia
# MCF7 breast = system: MCF7 breast
# MDA-MB-231 breast = system: MDA-MB-231 breast
# MDA-MB-435 = system: MDA-MB-435
# OVCAR-5 ovarian = system: OVCAR-5 ovarian
# PC-3 prostate = system: PC-3 prostate
# SK-MEL-5 melanoma = system: SK-MEL-5 melanoma
# TK-10 renal = system: TK-10 renal
Structure (SMILES),GI50 (ACHN renal),TGI (ACHN renal),GI50 (BT-549 breast),TGI (BT-549 breast),GI50 (CCRF-CEM leukemia),TGI (CCRF-CEM leukemia),GI50 (MCF7 breast),TGI (MCF7 breast),GI50 (MDA-MB-231 breast),TGI (MDA-MB-231 breast),GI50 (MDA-MB-435),TGI (MDA-MB-435),GI50 (OVCAR-5 ovarian),TGI (OVCAR-5 ovarian),GI50 (PC-3 prostate),TGI (PC-3 prostate),GI50 (SK-MEL-5 melanoma),TGI (SK-MEL-5 melanoma),GI50 (TK-10 renal),TGI (TK-10 renal)
COc1ccccc1CNCCCN1C(=O)c2ccc3c4c(ccc(c24)C1=O)C(=O)N(CCCN)C3=O,1.58 µM,4.51 µM,1.58 µM,2.99 µM,0.441 µM,2.76 µM,0.329 µM,1.6 µM,1.67 µM,10.9 µM,0.196 µM,0.413 µM,1.6 µM,3.56 µM,1.68 µM,4.95 µM,0.262 µM,0.899 µM,2.28 µM,7.89 µM
COc1ccc(/C=C(\C(=O)NCc2cccnc2)S(=O)(=O)c2ccccc2)cc1OC,3.16 µM,11.5 µM,2.45 µM,6.69 µM,2.26 µM,15.8 µM,2.41 µM,12.7 µM,2.93 µM,10.6 µM,2.74 µM,10.9 µM,3.31 µM,10.3 µM,3.5 µM,14.5 µM,2.97 µM,10.9 µM,5.57 µM,18.1 µM
N#CSCc1ccc(Cl)c(CSC#N)c1,0.0865 µM,22.6 µM,0.303 µM,11.2 µM,0.103 µM,23.6 µM,0.0465 µM,25.6 µM,2.36 µM,> 64 µM,0.133 µM,3.81 µM,1.77 µM,24.5 µM,1.35 µM,27.1 µM,0.33 µM,12.2 µM,14.5 µM,46.6 µM
CC[C@H](CO)Nc1nc(NCc2ccccc2)c2ncn(C(C)C)c2n1,16.4 µM,> 85.9 µM,–,45.3 µM,> 50.6 µM,> 100 µM,–,> 81.5 µM,32.2 µM,> 100 µM,20.1 µM,> 73.6 µM,28 µM,> 96.4 µM,–,70 µM,–,35.5 µM,44.9 µM,> 100 µM
O=[N+]([O-])c1ccc(N=Nc2ccc(O)c3ccccc23)cc1,3.13 µM,> 100 µM,5.07 µM,46.7 µM,4.24 µM,35.7 µM,2.42 µM,> 100 µM,1.43 µM,20.8 µM,5.31 µM,19.1 µM,14.4 µM,75.8 µM,1.67 µM,> 100 µM,2.55 µM,13.6 µM,2.81 µM,> 100 µM
CN1CCc2[nH]nc(-c3n[nH]c4c3CN(C)CC4)c2C1,–,> 100 µM,–,> 100 µM,–,> 100 µM,–,> 100 µM,–,> 100 µM,–,> 100 µM,–,> 100 µM,–,> 100 µM,–,> 100 µM,–,> 100 µM
OCCn1cnc2c(SCc3ccccc3)ncnc21,–,> 100 µM,–,> 100 µM,–,> 100 µM,–,> 100 µM,–,> 100 µM,–,> 100 µM,–,> 100 µM,–,> 100 µM,–,> 100 µM,–,> 100 µM
O1[As]2O[As]3O[As]1O[As](O2)O3,2.54 µM,11.2 µM,0.278 µM,0.903 µM,0.161 µM,1.11 µM,0.388 µM,2.29 µM,0.648 µM,2.96 µM,1.64 µM,7.69 µM,1.41 µM,5.32 µM,0.781 µM,5.9 µM,0.473 µM,1.75 µM,2.31 µM,9.5 µM
CN(C)CC1CCC2=C(C1=O)C(c1ccc(Cl)c(Cl)c1)C1=C(CCC(CN(C)C)C1=O)O2 (stereo not given),14.3 µM,27.3 µM,14.2 µM,27.7 µM,3.33 µM,26.3 µM,1.26 µM,3.27 µM,15.4 µM,28.7 µM,4.81 µM,17.5 µM,20 µM,36.6 µM,–,19.9 µM,15.2 µM,29 µM,0.7 µM,1.98 µM
NC(=O)c1ccc(-c2nc(-c3ccc4c(c3)OCO4)c(-c3ccccn3)[nH]2)cc1,> 25 µM and 34 µM,> 100 µM,> 25 µM and 22.5 µM,> 96.7 µM,> 25 µM and 38.4 µM,> 100 µM,> 25 µM and 31.9 µM,> 83.8 µM,21.3 µM and 14.8 µM,> 25 µM and 59.1 µM,> 25 µM and 38.6 µM,> 100 µM,> 25 µM and 32 µM,> 100 µM,> 25 µM and 43.2 µM,> 100 µM,> 25 µM and 15.1 µM,> 25 µM and 29.2 µM,> 25 µM and 47.7 µM,> 100 µM
CC(C)CCNCC(O)Cn1c2ccccc2c2ccccc21 (stereo not given),10.5 µM,23.4 µM,16.5 µM,31.4 µM,12.8 µM,31.7 µM,2.72 µM,10.3 µM,3.51 µM,14.4 µM,3.82 µM,14.8 µM,12.4 µM,25.7 µM,10.6 µM,23 µM,2.27 µM,6.25 µM,14 µM,27.6 µM
c1ccc2[nH]c(-c3cc(-c4ccc5c(c4)OCO5)n[nH]3)nc2c1,4.33 µM,19 µM,2.12 µM,13 µM,2.52 µM,22.4 µM,3.78 µM,18.3 µM,4.12 µM,20.2 µM,3.12 µM,15.6 µM,14.9 µM,34.3 µM,3.64 µM,17.7 µM,1.53 µM,3.55 µM,10.9 µM,23.8 µM
COC(=N)c1c(N)[n+]([O-])c2ccc(F)cc2[n+]1[O-],> 100 µM,> 100 µM,> 100 µM,> 100 µM,> 100 µM,> 100 µM,76.4 µM,> 100 µM,> 100 µM,> 100 µM,> 100 µM,> 100 µM,> 100 µM,> 100 µM,> 100 µM,> 100 µM,52.6 µM,> 100 µM,> 100 µM,> 100 µM

# From PubChem BioAssay (NCI)
